Measured values from PubChem BioAssay (NCI).
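How tested: cells in 96-well plates exposed to compound for 48 hours at five concentrations. Abbreviation: GI50, concentration required for 50% inhibition of growth. Definition used: TGI = concentration required for complete inhibition of growth.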

Experiments:
Assay in all cases: growth of human tumour cells (NCI), 48 h
SNB-75 CNS = tested on: SNB-75 CNS
SW-620 colon = tested on: SW-620 colon
SN12C renal = tested on: SN12C renal
UACC-62 melanoma = tested on: UACC-62 melanoma
SK-MEL-28 melanoma = tested on: SK-MEL-28 melanoma
SNB-19 CNS = tested on: SNB-19 CNS
EKVX NSCLC = tested on: EKVX NSCLC
RXF 393 renal = tested on: RXF 393 renal
MOLT-4 leukemia = tested on: MOLT-4 leukemia
MDA-MB-231 breast = tested on: MDA-MB-231 breast
MCF7 breast = tested on: MCF7 breast
SK-OV-3 ovarian = tested on: SK-OV-3 ovarian
NCI-H226 lung = tested on: NCI-H226 lung
A549 NSCLC = tested on: A549 NSCLC
DU-145 prostate = tested on: DU-145 prostate
SF-539 CNS = tested on: SF-539 CNS
HCT-15 colon = tested on: HCT-15 colon
NCI-H522 lung = tested on: NCI-H522 lung
T-47D breast = tested on: T-47D breast
CAKI-1 renal = tested on: CAKI-1 renal
HS 578T breast = tested on: HS 578T breast
SK-MEL-2 melanoma = tested on: SK-MEL-2 melanoma
SF-295 CNS = tested on: SF-295 CNS
NCI/ADR-RES ovarian = tested on: NCI/ADR-RES ovarian
SR leukemia = tested on: SR leukemia
786-0 renal = tested on: 786-0 renal
KM12 colon = tested on: KM12 colon
OVCAR-5 ovarian = tested on: OVCAR-5 ovarian
PC-3 prostate = tested on: PC-3 prostate
RPMI-8226 leukemia = tested on: RPMI-8226 leukemia
SK-MEL-5 melanoma = tested on: SK-MEL-5 melanoma
HOP-62 NSCLC = tested on: HOP-62 NSCLC
UO-31 renal = tested on: UO-31 renal
MALME-3M melanoma = tested on: MALME-3M melanoma
OVCAR-4 ovarian = tested on: OVCAR-4 ovarian
IGROV1 ovarian = tested on: IGROV1 ovarian
BT-549 breast = tested on: BT-549 breast
CCRF-CEM leukemia = tested on: CCRF-CEM leukemia
OVCAR-8 ovarian = tested on: OVCAR-8 ovarian
A498 renal = tested on: A498 renal
COLO 205 colon = tested on: COLO 205 colon
SF-268 CNS = tested on: SF-268 CNS
K-562 leukemia = tested on: K-562 leukemia
NCI-H460 lung = tested on: NCI-H460 lung
HCC-2998 colon = tested on: HCC-2998 colon
ACHN renal = tested on: ACHN renal
UACC-257 melanoma = tested on: UACC-257 melanoma
M14 melanoma = tested on: M14 melanoma
MDA-MB-435 = tested on: MDA-MB-435
U251 CNS = tested on: U251 CNS
TK-10 renal = tested on: TK-10 renal
HT29 colon = tested on: HT29 colon
OVCAR-3 ovarian = tested on: OVCAR-3 ovarian

`CC(C)Sc1nc(Nc2ccc(S(N)(=O)=O)cc2)c(C#N)c(-c2ccc(F)cc2)n1` showed a GI50 (SNB-75 CNS) of 2.49 µM, a TGI (SNB-75 CNS) of 9.2 µM and a GI50 (SW-620 colon) of 3.84 µM. The TGI (SW-620 colon) was 22.8 µM, the GI50 (SN12C renal) was 2.38 µM and the TGI (SN12C renal) was 5.99 µM. For the same molecule, the GI50 (UACC-62 melanoma) was 10.3 µM, the TGI (UACC-62 melanoma) was 26.3 µM and the GI50 (SK-MEL-28 melanoma) was 14.6 µM. It also gave a TGI (SK-MEL-28 melanoma) of 37.7 µM, a GI50 (SNB-19 CNS) of 2.85 µM and a TGI (SNB-19 CNS) of 8.01 µM. The GI50 (EKVX NSCLC) was 3.31 µM, the TGI (EKVX NSCLC) was 14.1 µM and the TGI (RXF 393 renal) was 4.47 µM. It also gave a GI50 (MOLT-4 leukemia) of 5.39 µM, a GI50 (MDA-MB-231 breast) of 2.86 µM and a TGI (MDA-MB-231 breast) of 8.1 µM. The TGI (MCF7 breast) was 32.1 µM, the GI50 (SK-OV-3 ovarian) was 3.04 µM and the TGI (SK-OV-3 ovarian) was 8.94 µM. For the same molecule, the GI50 (NCI-H226 lung) was 2.14 µM, the TGI (NCI-H226 lung) was 5.54 µM and the TGI (A549 NSCLC) was 10.4 µM. For the same molecule, the GI50 (DU-145 prostate) was 5.68 µM, the TGI (DU-145 prostate) was > 100 µM and the TGI (SF-539 CNS) was 4.81 µM. The TGI (HCT-15 colon) was > 100 µM, the GI50 (NCI-H522 lung) was 8 µM and the GI50 (T-47D breast) was 3.46 µM. It also gave a TGI (T-47D breast) of 20.3 µM, a GI50 (CAKI-1 renal) of 1.78 µM and a TGI (CAKI-1 renal) of 3.61 µM. The GI50 (HS 578T breast) was 2.76 µM, the TGI (HS 578T breast) was 9.31 µM and the GI50 (SK-MEL-2 melanoma) was 19 µM. For the same molecule, the TGI (SK-MEL-2 melanoma) was 55.7 µM, the GI50 (SF-295 CNS) was 1.95 µM and the TGI (SF-295 CNS) was 3.73 µM. It also gave a GI50 (NCI/ADR-RES ovarian) of 3.24 µM, a GI50 (SR leukemia) of 3.73 µM and a GI50 (786-0 renal) of 3.31 µM. For the same molecule, the TGI (786-0 renal) was 11.1 µM, the GI50 (KM12 colon) was 6.92 µM and the TGI (KM12 colon) was > 100 µM. For the same molecule, the GI50 (OVCAR-5 ovarian) was 14.6 µM, the TGI (OVCAR-5 ovarian) was 62.4 µM and the GI50 (PC-3 prostate) was 4.84 µM. For the same molecule, the TGI (PC-3 prostate) was 19 µM, the GI50 (RPMI-8226 leukemia) was 9.22 µM and the TGI (RPMI-8226 leukemia) was 64.3 µM. It also gave a GI50 (SK-MEL-5 melanoma) of 23.3 µM, a TGI (SK-MEL-5 melanoma) of 77.4 µM and a GI50 (HOP-62 NSCLC) of 3.12 µM. For the same molecule, the TGI (HOP-62 NSCLC) was 10.7 µM, the GI50 (UO-31 renal) was 2.39 µM and the TGI (UO-31 renal) was 8.92 µM. It also gave a GI50 (MALME-3M melanoma) of 3.2 µM, a TGI (MALME-3M melanoma) of 10.3 µM and a GI50 (OVCAR-4 ovarian) of 2.1 µM. The TGI (OVCAR-4 ovarian) was 4.92 µM, the TGI (IGROV1 ovarian) was 20.7 µM and the GI50 (BT-549 breast) was 9.29 µM. For the same molecule, the TGI (BT-549 breast) was 35.4 µM, the GI50 (CCRF-CEM leukemia) was 7.35 µM and the GI50 (OVCAR-8 ovarian) was 3.98 µM. The TGI (OVCAR-8 ovarian) was 15.7 µM, the GI50 (A498 renal) was 2.82 µM and the GI50 (COLO 205 colon) was 7.98 µM. For the same molecule, the TGI (COLO 205 colon) was 30.2 µM, the GI50 (SF-268 CNS) was 5.49 µM and the TGI (SF-268 CNS) was 30.6 µM. For the same molecule, the GI50 (K-562 leukemia) was 4.26 µM, the TGI (NCI-H460 lung) was 5.57 µM and the GI50 (HCC-2998 colon) was 10.7 µM. The TGI (HCC-2998 colon) was 27.6 µM, the GI50 (ACHN renal) was 3.07 µM and the TGI (ACHN renal) was 9.12 µM. It also gave a GI50 (UACC-257 melanoma) of 14.4 µM, a TGI (UACC-257 melanoma) of 47.8 µM and a GI50 (M14 melanoma) of 5.59 µM. It also gave a TGI (M14 melanoma) of 23.7 µM, a GI50 (MDA-MB-435) of 4.35 µM and a TGI (MDA-MB-435) of 31.9 µM. For the same molecule, the GI50 (U251 CNS) was 1.81 µM, the TGI (U251 CNS) was 3.54 µM and the GI50 (TK-10 renal) was 3.08 µM. It also gave a GI50 (HT29 colon) of 2.09 µM, a TGI (HT29 colon) of 4.77 µM and a GI50 (OVCAR-3 ovarian) of 3.02 µM. For the same molecule, the TGI (OVCAR-3 ovarian) was 8.51 µM.

Molecule `CC(=O)OC[C@H]1OC(O)C=C[C@@H]1OC(C)=O` (stereo partly specified) has a GI50 (SNB-75 CNS) of 86.3 µM, a TGI (SNB-75 CNS) of 159 µM and a GI50 (SN12C renal) of 88 µM. The TGI (SN12C renal) was 168 µM, the GI50 (UACC-62 melanoma) was 92 µM and the TGI (UACC-62 melanoma) was 176 µM. For the same molecule, the GI50 (SK-MEL-28 melanoma) was 80.4 µM, the TGI (SK-MEL-28 melanoma) was 153 µM and the GI50 (SNB-19 CNS) was 91.1 µM. It also gave a TGI (SNB-19 CNS) of 170 µM, a GI50 (RXF 393 renal) of 96.8 µM and a TGI (RXF 393 renal) of 195 µM. It also gave a GI50 (MDA-MB-231 breast) of 87.7 µM, a TGI (MDA-MB-231 breast) of 183 µM and a GI50 (MCF7 breast) of 23.5 µM. For the same molecule, the TGI (MCF7 breast) was 123 µM, the GI50 (SK-OV-3 ovarian) was 145 µM and the TGI (SK-OV-3 ovarian) was 407 µM. It also gave a GI50 (NCI-H226 lung) of 119 µM, a TGI (NCI-H226 lung) of 267 µM and a GI50 (A549 NSCLC) of 767 µM. For the same molecule, the TGI (A549 NSCLC) was 2490 µM, the GI50 (DU-145 prostate) was 71.6 µM and the TGI (DU-145 prostate) was 143 µM. For the same molecule, the GI50 (SF-539 CNS) was 77.8 µM, the TGI (SF-539 CNS) was 155 µM and the GI50 (T-47D breast) was 33.3 µM. It also gave a TGI (T-47D breast) of 161 µM, a GI50 (CAKI-1 renal) of 91.1 µM and a TGI (CAKI-1 renal) of 170 µM. For the same molecule, the GI50 (HS 578T breast) was 107 µM, the TGI (HS 578T breast) was 263 µM and the GI50 (SK-MEL-2 melanoma) was 91.3 µM. The TGI (SK-MEL-2 melanoma) was 177 µM, the GI50 (SF-295 CNS) was 102 µM and the TGI (SF-295 CNS) was 198 µM. It also gave a GI50 (786-0 renal) of 94.1 µM, a TGI (786-0 renal) of 178 µM and a GI50 (KM12 colon) of 93.9 µM. For the same molecule, the TGI (KM12 colon) was 177 µM, the GI50 (OVCAR-5 ovarian) was 95 µM and the TGI (OVCAR-5 ovarian) was 169 µM. The GI50 (PC-3 prostate) was 89.5 µM, the TGI (PC-3 prostate) was 170 µM and the GI50 (SK-MEL-5 melanoma) was 89 µM. The TGI (SK-MEL-5 melanoma) was 161 µM, the GI50 (HOP-62 NSCLC) was 110 µM and the TGI (HOP-62 NSCLC) was 227 µM. The GI50 (UO-31 renal) was 89.5 µM, the TGI (UO-31 renal) was 168 µM and the GI50 (BT-549 breast) was 89.2 µM. It also gave a TGI (BT-549 breast) of 162 µM, a GI50 (CCRF-CEM leukemia) of 17.7 µM and a TGI (CCRF-CEM leukemia) of 89.8 µM. For the same molecule, the GI50 (SF-268 CNS) was 109 µM, the TGI (SF-268 CNS) was 236 µM and the GI50 (NCI-H460 lung) was 155 µM. For the same molecule, the TGI (NCI-H460 lung) was 488 µM, the GI50 (HCC-2998 colon) was 91.7 µM and the TGI (HCC-2998 colon) was 171 µM. For the same molecule, the GI50 (ACHN renal) was 81.5 µM, the TGI (ACHN renal) was 151 µM and the GI50 (UACC-257 melanoma) was 87.1 µM. For the same molecule, the TGI (UACC-257 melanoma) was 183 µM, the GI50 (MDA-MB-435) was 82.4 µM and the TGI (MDA-MB-435) was 155 µM. For the same molecule, the GI50 (U251 CNS) was 95.1 µM, the TGI (U251 CNS) was 187 µM and the GI50 (TK-10 renal) was 98.1 µM. For the same molecule, the TGI (TK-10 renal) was 179 µM.
